ChEMBL document CHEMBL6121044, “Discovery of Novel Spirocyclic MAT2A Inhibitors Demonstrating High In Vivo Efficacy in MTAP-Null Xenograft Models” (J Med Chem, 2025)
Values after ≈ are worked out from the molar mass of the structure shown.

Columns and labels:
Cytochrome P450 2C9 = Cytochrome P450 2C9 (Homo sapiens, UniProt P11712); experiment: Inhibition of CYP2C9 (unknown origin); type: ADME
[1] = Microsomal metabolic stability in Cynomolgus monkey liver microsomes assessed as half life; type: ADME, Macaca fascicularis, Microsome
[2] = Microsomal metabolic stability in human liver microsomes assessed as clearance; type: ADME, Microsome; settings: read-out: CLH
[3] = Plasma protein binding in human assessed as unbound fraction; type: ADME, cell-free
[4] = Oral bioavailability in male ICR mouse at 10 mg/kg measured upto 24 hrs by LC-MS/MS analysis; type: ADME, organism-based; settings: in vivo
[5] = Clearance rate in male ICR mouse at 2 mg/kg, iv measured upto 24 hrs by LC-MS/MS analysis; type: ADME, organism-based; settings: in vivo
[6] = Lipophilicity, log D of compound at pH 7.4 byHPLC method; type: physicochemical; settings: buffer
[7] = AUCinf in male Sprague-Dawley rat at 10 mg/kg, po measured upto 24 hrs upto 24 hrs by LC-MS/MS analysis; type: ADME, organism-based; settings: in vivo
[8] = Half life in male ICR mouse at 10 mg/kg, po measured upto 24 hrs by LC-MS/MS analysis; type: ADME, organism-based; settings: in vivo
Cytochrome P450 2C19 = Cytochrome P450 2C19 (Homo sapiens, UniProt P33261); experiment: Inhibition of CYP2C19 (unknown origin); type: ADME
[9] = Solubility of the compound in FaSSIF; type: physicochemical
Cytochrome P450 2B6 = biological target: T1, Cytochrome P450 2B6 (Homo sapiens, UniProt P20813); experiment: Inhibition of CYP2B6 (unknown origin); type: ADME
T1 sequence (P20813 whole entry): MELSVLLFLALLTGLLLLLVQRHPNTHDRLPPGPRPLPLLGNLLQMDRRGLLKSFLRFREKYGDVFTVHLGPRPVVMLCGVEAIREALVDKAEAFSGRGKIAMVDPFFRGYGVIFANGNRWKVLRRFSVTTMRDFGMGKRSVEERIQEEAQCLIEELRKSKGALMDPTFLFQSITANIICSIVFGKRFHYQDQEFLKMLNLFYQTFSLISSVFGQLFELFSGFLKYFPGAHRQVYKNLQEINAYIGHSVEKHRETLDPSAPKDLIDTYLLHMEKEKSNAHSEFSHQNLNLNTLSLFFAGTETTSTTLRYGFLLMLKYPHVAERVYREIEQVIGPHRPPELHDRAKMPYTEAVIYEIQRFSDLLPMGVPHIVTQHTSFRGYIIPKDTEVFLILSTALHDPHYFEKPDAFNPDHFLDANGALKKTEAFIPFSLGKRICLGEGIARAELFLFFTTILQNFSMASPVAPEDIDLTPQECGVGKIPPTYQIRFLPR

[10] = Volume of distribution at steady state in beagle dog at 2 mg/kg, iv measured upto 24 hrs upto 24 hrs by LC-MS/MS analysis; type: ADME, organism-based, Canis lupus familiaris; settings: in vivo, read-out: Vdss
[11] = Genotoxicity in Salmonella typhimurium TA102; type: toxicity; settings: salmonella enterica subsp. enterica serovar typhimurium
[12] = Plasma protein binding in cynomolgus monkey assessed as unbound fraction; type: ADME, cell-free, Macaca fascicularis
[13] = Plasma protein binding in dog assessed as unbound fraction; type: ADME, cell-free, Canis lupus familiaris
[14] = Dissociation constant, pKa of compound; type: physicochemical
[15] = biological target: T2, S-adenosylmethionine synthase isoform type-2 (Homo sapiens, UniProt P31153); experiment: Inhibition of MAT2A (unknown origin) assessed as release of inorganic phosphate using ATP/L-methionine pre-incubated for 30 mins followed by substrate addition measured after 2.5 hrs by colorimetric assay
[16] = AUCinf in beagle dog at 2 mg/kg, iv measured upto 24 hrs upto 24 hrs by LC-MS/MS analysis; type: ADME, organism-based, Canis lupus familiaris; settings: in vivo
Cytochrome P450 3A4 = Cytochrome P450 3A4 (Homo sapiens, UniProt P08684); experiment: Inhibition of CYP3A4 (unknown origin); type: ADME
[17] = Hepatic metabolic stability in Cynomolgus monkey hepatocyte assessed as half life; type: ADME, cell-based, Macaca fascicularis; settings: hepatocytes
[18] = biological target: T3, UDP-glucuronosyltransferase 1A1 (Homo sapiens, UniProt P22309); experiment: Inhibition of UGT1A1 (unknown origin)
T3 sequence (P22309 whole entry): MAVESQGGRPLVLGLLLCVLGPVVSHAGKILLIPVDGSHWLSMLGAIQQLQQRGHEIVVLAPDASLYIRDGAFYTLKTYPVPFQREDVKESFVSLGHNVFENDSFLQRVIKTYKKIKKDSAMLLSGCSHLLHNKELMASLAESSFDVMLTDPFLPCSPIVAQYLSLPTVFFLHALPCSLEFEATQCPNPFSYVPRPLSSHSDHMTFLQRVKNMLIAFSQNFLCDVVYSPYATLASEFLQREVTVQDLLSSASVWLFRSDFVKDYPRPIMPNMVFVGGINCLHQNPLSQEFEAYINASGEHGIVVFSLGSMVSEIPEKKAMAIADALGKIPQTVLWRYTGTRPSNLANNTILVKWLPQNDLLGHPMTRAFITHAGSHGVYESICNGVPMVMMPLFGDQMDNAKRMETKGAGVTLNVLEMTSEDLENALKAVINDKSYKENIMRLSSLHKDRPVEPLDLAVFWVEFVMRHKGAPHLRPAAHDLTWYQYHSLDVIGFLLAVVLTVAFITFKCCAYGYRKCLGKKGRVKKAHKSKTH

[19] = Plasma protein binding in mouse assessed as unbound fraction; type: ADME, cell-free
Cytochrome P450 2D6 = Cytochrome P450 2D6 (Homo sapiens, UniProt P10635); experiment: Inhibition of CYP2D6 (unknown origin); type: ADME
HCT-116 = experiment: Antiproliferative activity against wild type human HCT-116 cells measured after 5 days by CTG assay; type: functional, cell-based; settings: HCT-116, 120 h
[20] = Clearance rate in beagle dog at 2 mg/kg, iv measured upto 24 hrs upto 24 hrs by LC-MS/MS analysis; type: ADME, organism-based, Canis lupus familiaris; settings: in vivo
Cytochrome P450 1A2 = biological target: T4, Cytochrome P450 1A2 (Homo sapiens, UniProt P05177); experiment: Inhibition of CYP1A2 (unknown origin); type: ADME
T4 sequence (P05177 whole entry): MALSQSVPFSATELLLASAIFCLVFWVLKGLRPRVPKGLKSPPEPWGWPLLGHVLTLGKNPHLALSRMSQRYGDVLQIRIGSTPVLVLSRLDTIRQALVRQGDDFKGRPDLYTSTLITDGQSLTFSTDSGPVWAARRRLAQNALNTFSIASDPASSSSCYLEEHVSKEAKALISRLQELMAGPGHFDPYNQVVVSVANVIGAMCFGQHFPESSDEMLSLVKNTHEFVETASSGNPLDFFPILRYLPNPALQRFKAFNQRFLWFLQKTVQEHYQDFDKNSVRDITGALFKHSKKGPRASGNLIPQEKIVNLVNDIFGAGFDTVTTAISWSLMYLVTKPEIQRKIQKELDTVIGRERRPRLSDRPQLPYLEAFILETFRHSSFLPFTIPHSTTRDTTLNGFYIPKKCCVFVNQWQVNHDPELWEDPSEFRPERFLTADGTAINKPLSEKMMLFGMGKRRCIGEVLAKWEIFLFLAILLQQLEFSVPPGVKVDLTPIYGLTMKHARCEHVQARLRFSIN

[21] = biological target: T2, S-adenosylmethionine synthase isoform type-2; experiment: Inhibition of MAT2A in MTAP-knock out human HCT-116 cells assessed as inhibition of S-adenosylmethionine level; type: cell-based
[22] = Genotoxicity in Salmonella typhimurium TA100; type: toxicity; settings: salmonella enterica subsp. enterica serovar typhimurium
[23] = Half life in beagle dog at 10 mg/kg, po measured upto 24 hrs upto 24 hrs by LC-MS/MS analysis; type: ADME, organism-based, Canis lupus familiaris; settings: in vivo

T2 sequence (P31153 whole entry, canonical isoform): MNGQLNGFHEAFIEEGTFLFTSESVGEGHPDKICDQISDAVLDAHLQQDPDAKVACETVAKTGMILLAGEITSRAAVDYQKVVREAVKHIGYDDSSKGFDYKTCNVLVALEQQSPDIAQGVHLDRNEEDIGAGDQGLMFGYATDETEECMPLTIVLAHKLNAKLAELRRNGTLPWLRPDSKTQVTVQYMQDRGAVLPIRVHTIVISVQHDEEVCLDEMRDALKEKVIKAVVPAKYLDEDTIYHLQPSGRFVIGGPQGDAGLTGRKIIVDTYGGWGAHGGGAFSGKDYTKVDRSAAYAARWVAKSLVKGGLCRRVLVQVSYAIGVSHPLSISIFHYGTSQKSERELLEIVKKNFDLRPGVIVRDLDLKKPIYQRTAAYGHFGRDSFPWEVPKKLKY
Cytochrome P450 2C9, sequence (P11712 whole entry): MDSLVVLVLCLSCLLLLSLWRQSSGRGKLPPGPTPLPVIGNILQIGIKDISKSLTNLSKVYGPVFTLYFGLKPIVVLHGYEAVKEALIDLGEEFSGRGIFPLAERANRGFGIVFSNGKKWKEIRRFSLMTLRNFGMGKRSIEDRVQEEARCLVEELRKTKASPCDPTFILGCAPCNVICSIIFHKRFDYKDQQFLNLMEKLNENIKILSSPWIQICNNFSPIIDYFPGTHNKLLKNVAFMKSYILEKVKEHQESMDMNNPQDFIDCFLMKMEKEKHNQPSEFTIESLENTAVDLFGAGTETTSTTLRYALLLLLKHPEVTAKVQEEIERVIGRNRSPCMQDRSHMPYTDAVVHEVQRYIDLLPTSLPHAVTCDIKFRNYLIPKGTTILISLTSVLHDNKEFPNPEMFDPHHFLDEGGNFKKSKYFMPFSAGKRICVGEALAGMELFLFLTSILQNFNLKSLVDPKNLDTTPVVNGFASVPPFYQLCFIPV
Cytochrome P450 2D6, sequence (P10635 whole entry): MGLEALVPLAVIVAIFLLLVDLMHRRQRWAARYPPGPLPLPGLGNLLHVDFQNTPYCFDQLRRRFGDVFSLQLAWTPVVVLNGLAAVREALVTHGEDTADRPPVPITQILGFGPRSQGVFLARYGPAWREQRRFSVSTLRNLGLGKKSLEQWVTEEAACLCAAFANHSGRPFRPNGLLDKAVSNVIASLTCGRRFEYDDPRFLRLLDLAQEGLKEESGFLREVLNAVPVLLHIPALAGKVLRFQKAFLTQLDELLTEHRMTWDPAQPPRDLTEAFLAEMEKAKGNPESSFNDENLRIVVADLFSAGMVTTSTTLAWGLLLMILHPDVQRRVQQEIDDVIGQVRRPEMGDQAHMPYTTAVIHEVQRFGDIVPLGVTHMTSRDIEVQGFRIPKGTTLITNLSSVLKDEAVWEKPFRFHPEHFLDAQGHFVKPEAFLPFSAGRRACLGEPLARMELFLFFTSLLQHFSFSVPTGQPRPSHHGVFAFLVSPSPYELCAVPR
Cytochrome P450 3A4, sequence (P08684 whole entry): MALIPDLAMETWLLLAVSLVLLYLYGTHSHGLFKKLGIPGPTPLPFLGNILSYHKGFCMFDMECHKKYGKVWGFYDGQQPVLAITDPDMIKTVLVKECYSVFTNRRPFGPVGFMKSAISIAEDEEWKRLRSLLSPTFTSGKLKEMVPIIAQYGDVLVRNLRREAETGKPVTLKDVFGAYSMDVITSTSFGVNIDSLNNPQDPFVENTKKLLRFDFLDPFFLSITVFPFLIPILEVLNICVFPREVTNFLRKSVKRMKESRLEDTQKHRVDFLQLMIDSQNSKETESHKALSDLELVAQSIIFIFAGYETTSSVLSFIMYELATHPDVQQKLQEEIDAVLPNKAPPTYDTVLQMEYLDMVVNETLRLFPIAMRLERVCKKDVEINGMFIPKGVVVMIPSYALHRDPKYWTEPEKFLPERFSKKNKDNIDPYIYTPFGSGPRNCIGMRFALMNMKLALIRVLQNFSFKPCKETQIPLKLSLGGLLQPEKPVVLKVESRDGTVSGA
Cytochrome P450 2C19, sequence (P33261 whole entry): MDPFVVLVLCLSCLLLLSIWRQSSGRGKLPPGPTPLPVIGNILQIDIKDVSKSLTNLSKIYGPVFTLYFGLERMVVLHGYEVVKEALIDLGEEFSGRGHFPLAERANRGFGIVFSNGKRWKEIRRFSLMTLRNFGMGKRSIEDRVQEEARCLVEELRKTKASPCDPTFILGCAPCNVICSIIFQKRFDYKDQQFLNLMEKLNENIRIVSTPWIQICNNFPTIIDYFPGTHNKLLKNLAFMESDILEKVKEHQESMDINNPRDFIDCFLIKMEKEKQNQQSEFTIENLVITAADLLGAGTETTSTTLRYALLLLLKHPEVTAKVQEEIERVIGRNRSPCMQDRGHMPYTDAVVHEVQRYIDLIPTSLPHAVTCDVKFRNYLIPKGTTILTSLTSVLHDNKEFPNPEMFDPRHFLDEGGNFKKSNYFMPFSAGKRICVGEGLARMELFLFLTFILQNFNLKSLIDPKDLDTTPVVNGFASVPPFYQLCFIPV

Structure (SMILES)	IC50 (Cytochrome P450 2C9)	half-life [1]	CLint scaled [2]	fraction unbound [3]	bioavailability [4]	clearance [5]	logD [6]	AUC(0-inf) [7]	half-life [8]	IC50 (Cytochrome P450 2C19)	solubility [9]	IC50 (Cytochrome P450 2B6)	Vd [10]	Activity [11]	fraction unbound [12]	fraction unbound [13]	pKa [14]	IC50 [15]	AUC(0-inf) [16]	IC50 (Cytochrome P450 3A4)	further results
[2H]C([2H])([2H])NC1=NC(=O)[C@]2(CCc3ncccc32)c2cc(C(C)(F)F)ccc21	> 10 µM	> 3.1 h	< 0.558 L/h/kg	0.676	132%	0.547 L/h/kg	1.59	14.5 µg·h/mL	2.37 h	> 10 µM	208 µM (≈ 71.6 µg/mL)	> 10 µM	1.14 L/kg	Non-toxic	0.519	0.456	4.9	0.004 µM	1.86 µg·h/mL	> 10 µM	half-life [17]: > 3.61 h; IC50 [18]: > 50 µM; fraction unbound [19]: 0.345; IC50 (Cytochrome P450 2D6): > 10 µM; IC50 (HCT-116): > 10 µM; clearance [20]: 0.918 L/h/kg; IC50 (Cytochrome P450 1A2): > 10 µM; IC50 [21]: 0.004 µM; Activity [22]: Non-toxic; half-life [23]: 4.47 h
[2H]C([2H])([2H])NC1=NC(=O)[C@]2(CCc3ncccc32)c2cc(C(F)(F)F)ccc21	> 10 µM	> 3.1 h	< 0.558 L/h/kg	0.758	97%	0.479 L/h/kg	1.81	24.3 µg·h/mL	2.19 h	> 10 µM	207 µM (≈ 72.1 µg/mL)	> 10 µM	1.14 L/kg	Non-toxic	0.562	0.497	4.7	0.004 µM	2.61 µg·h/mL	> 10 µM	half-life [17]: > 3.61 h; IC50 [18]: > 50 µM; fraction unbound [19]: 0.276; IC50 (Cytochrome P450 2D6): > 10 µM; IC50 (HCT-116): 0.68 µM; clearance [20]: 0.417 L/h/kg; IC50 (Cytochrome P450 1A2): > 10 µM; IC50 [21]: 0.004 µM; Activity [22]: Non-toxic; half-life [23]: 6.09 h
